Measured values published in US20200325177A1, “METHODS OF MAKING STREPTOGRAMIN COMPOSITIONS AND THE USE THEREOF” (THE REGENTS OF THE UNIVERSITY OF CALIFORNIA, priority 2017, published 2020).
Values after ≈ are worked out from the molar mass of the structure shown. Read-outs that look alike come from different tables or passages of the source.

How the values were obtained:
Format in all cases: cell-based
[1] = system: Gram-Negative Organisms; test: microbe, parasite or virus in culture
[2] = system: H. influenzae ATCC 49247; test: MIC, Gram-negative bacteria: H. influenzae ATCC 49247; details: Haemophilus influenzae, ATCC49247, read-out: Minimal Inhibitory Concentration (MIC) H. influenzae ATCC 49247
[3] = system: E. faecalis; test: MIC, Gram-positive bacteria: E. faecalis; details: Enterococcus faecalis, column 1, read-out: Minimal Inhibitory Concentration (MIC) E. faecalis
[4] = system: E. faecium ATCC 35667; test: MIC, Gram-positive bacteria: E. faecium ATCC 35667; details: Enterococcus faecium, ATCC35667, column 2, read-out: Minimal Inhibitory Concentration (MIC) E. faecium ATCC 35667
[5] = system: E. faecium VRE; vanA; test: MIC, Gram-positive bacteria: E. faecium VRE; vanA; details: Enterococcus faecium, column 3, read-out: Minimal Inhibitory Concentration (MIC) E. faecium VRE
[6] = system: S. aureus Vat A streptogramin; test: MIC, Gram-positive bacteria: S. aureus Vat A streptogramin; details: Staphylococcus aureus; Gram-positive; column 5; read-out: Minimal Inhibitory Concentration (MIC) S. aureus Vat A streptogramin
[7] = system: P. aeruginosa ATCC 27853; test: MIC, Gram-negative bacteria: P. aeruginosa ATCC 27853; details: Pseudomonas aeruginosa, ATCC27853, read-out: Minimal Inhibitory Concentration (MIC) P. aeruginosa ATCC 27853
[8] = system: P. aeruginosa MDR clinical isolate; test: MIC, Gram-negative bacteria: P. aeruginosa MDR clinical isolate; details: Pseudomonas aeruginosa, read-out: Minimal Inhibitory Concentration (MIC) P. aeruginosa MDR clinical isolate
[9] = system: S. pneumoniae; test: MIC, Gram-positive bacteria: S. pneumoniae; details: Streptococcus pneumoniae, column 10, read-out: Minimal Inhibitory Concentration (MIC) S. pneumoniae
[10] = system: S. aureus; test: MIC, Gram-positive bacteria: S. aureus (strains not named); details: Staphylococcus aureus, read-out: Minimal Inhibitory Concentration (MIC) S. aureus
[11] = system: S. aureus Linezolid-resistant; cfr; test: MIC, Gram-positive bacteria: S. aureus Linezolid-resistant; cfr; details: Staphylococcus aureus, column 9, read-out: Minimal Inhibitory Concentration (MIC) S. aureus Linezolid-resistant
[12] = system: K. pneumoniae multidrug-resistant; test: MIC, Gram-negative bacteria: K. pneumoniae multidrug-resistant; details: Klebsiella pneumoniae, read-out: Minimal Inhibitory Concentration (MIC) K. pneumoniae multidrug-resistant
[13] = Acinetobacter baumannii, ATCC19606, read-out: Minimal Inhibitory Concentration (MIC), A. baumannii ATCC 19606
[14] = Escherichia coli, ATCC25922, read-out: Minimal Inhibitory Concentration (MIC), E. coli ATCC 25922
[15] = Escherichia coli, read-out: Minimal Inhibitory Concentration (MIC), E. coli BAS2006, OMP C, OMP F
[16] = Escherichia coli, read-out: Minimal Inhibitory Concentration (MIC), E. coli olC efflux defective
[17] = Escherichia coli, read-out: Minimal Inhibitory Concentration (MIC), E. coli permeability mutant BAS1314, IMP4213ZAB::TN10
[18] = Escherichia coli, read-out: Minimal Inhibitory Concentration (MIC), E. coli ΔompC768, KanR insert
[19] = Klebsiella pneumoniae, ATCC43816, read-out: Minimal Inhibitory Concentration (MIC), K. pneumoniae ATCC 43816
[20] = first unnamed S. aureus column (c4)
[21] = fourth unnamed S. aureus column (c8)
[22] = second unnamed S. aureus column (c6)
[23] = third unnamed S. aureus column (c7)

Row | Compound | MIC [1, 13] [µg/mL] | MIC [1, 14] [µg/mL] | MIC [1, 15] [µg/mL] | MIC [1, 16] [µg/mL] | MIC [1, 17] [µg/mL] | MIC [1, 19] [µg/mL] | MIC [2] [µg/mL] | MIC [3] [µg/mL] | MIC [4] [µg/mL] | MIC [5] [µg/mL] | MIC [6] [µg/mL] | MIC [7] [µg/mL] | MIC [8] [µg/mL] | MIC [9] [µg/mL] | MIC [10, 20] [µg/mL] | MIC [10, 21] [µg/mL] | MIC [10, 22] [µg/mL] | MIC [10, 23] [µg/mL] | MIC [11] [µg/mL] | MIC [12] [µg/mL] | other results
1 | CC1=C\[C@@H](O)CC(=O)Cc2nc(co2)C(=O)N2CCC[C@@H]2C(=O)O[C@H]([C@H](C)COC(=O)Nc2csc(C)n2)[C@H](C)/C=C/C(=O)NC\C=C\1 [SA0110214] | > 64 | > 64 | 64 (≈ 93.6 µM) | 8 (≈ 11.7 µM) | 8 (≈ 11.7 µM) | > 64 | 16 (≈ 23.4 µM) | > 64 | 32 (≈ 46.8 µM) | 64 (≈ 93.6 µM) | > 64 | > 64 | > 64 | 32 (≈ 46.8 µM) | 64 (≈ 93.6 µM) | 64 (≈ 93.6 µM) | 64 (≈ 93.6 µM) | > 64 | > 64 | > 64 | MIC [1, 18]: > 64 µg/mL
2 | CC1=C\[C@@H](O)CC(=O)Cc2nc(co2)C(=O)N[C@H](C)C(=O)O[C@H](C(C)C)[C@H](C)/C=C/C(=O)NC\C=C\1 [madumycin I, Madumycin I, reference compound] | > 64 | > 64 | 0.5 (≈ 0.997 µM) | 2 (≈ 3.99 µM) | 0.25 (≈ 0.498 µM) | > 64 | 8 (≈ 15.9 µM) | 32 (≈ 63.8 µM) | 2 (≈ 3.99 µM) | 4 (≈ 7.97 µM) | 64 (≈ 128 µM) | > 64 | > 64 | 4 (≈ 7.97 µM) | 8 (≈ 15.9 µM) | 4 (≈ 7.97 µM) | 8 (≈ 15.9 µM) | 8 (≈ 15.9 µM) | 64 (≈ 128 µM) | > 64 | –
3 | CC1=C\[C@@H](O)CC(=O)Cc2nc(co2)C(=O)N2CCC[C@@H]2C(=O)O[C@H]([C@@H](C)COC(=O)Nc2ccn(C)n2)[C@H](C)/C=C/C(=O)NC\C=C\1 [SA0110113] | > 64 | > 64 | 64 (≈ 96 µM) | 8 (≈ 12 µM) | 16 (≈ 24 µM) | > 64 | 64 (≈ 96 µM) | > 64 | 64 (≈ 96 µM) | > 64 | > 64 | > 64 | > 64 | 8 (≈ 12 µM) | > 64 | > 64 | > 64 | > 64 | > 64 | > 64 | –
4 | CC1=C\[C@@H](O)CC(=O)Cc2nc(co2)C(=O)N2CCC[C@@H]2C(=O)O[C@H]([C@@H](C)COC(=O)Nc2cc3ccccc3cn2)[C@H](C)/C=C/C(=O)NC\C=C\1 [SA0110118] | > 64 | > 64 | 8 (≈ 11.2 µM) | 2 (≈ 2.8 µM) | 2 (≈ 2.8 µM) | > 64 | > 64 | > 64 | 4 (≈ 5.6 µM) | 16 (≈ 22.4 µM) | > 64 | > 64 | > 64 | 2 (≈ 2.8 µM) | 8 (≈ 11.2 µM) | 8 (≈ 11.2 µM) | 8 (≈ 11.2 µM) | 16 (≈ 22.4 µM) | > 64 | > 64 | –
5 | CC1=C\[C@@H](O)CC(=O)Cc2nc(co2)C(=O)N2CCC[C@@H]2C(=O)O[C@H]([C@H](C)COC(=O)Nc2ccc(Br)nc2)[C@H](C)/C=C/C(=O)NC\C=C\1 [SA0110209] | > 64 | > 64 | > 64 | 2 (≈ 2.69 µM) | 2 (≈ 2.69 µM) | > 64 | 8 (≈ 10.8 µM) | > 64 | 16 (≈ 21.5 µM) | > 64 | > 64 | > 64 | > 64 | 16 (≈ 21.5 µM) | 16 (≈ 21.5 µM) | 16 (≈ 21.5 µM) | 16 (≈ 21.5 µM) | > 64 | > 64 | > 64 | MIC [1, 18]: > 64 µg/mL
6 | CC1=C\[C@@H](O)CC(=O)Cc2nc(co2)C(=O)N2CCC[C@@H]2C(=O)O[C@H]([C@@H](C)COC(=O)Nc2coc(C)n2)[C@H](C)/C=C/C(=O)NC\C=C\1 [SA0110095] | > 64 | > 64 | 32 (≈ 47.9 µM) | 8 (≈ 12 µM) | 16 (≈ 24 µM) | > 64 | 64 (≈ 95.8 µM) | > 64 | 32 (≈ 47.9 µM) | > 64 | > 64 | > 64 | > 64 | 16 (≈ 24 µM) | > 64 | 64 (≈ 95.8 µM) | > 64 | > 64 | > 64 | > 64 | –
7 | CC1=C\[C@@H](O)CC(=O)Cc2nc(co2)C(=O)N2CCC[C@@H]2C(=O)O[C@H]([C@H](C)COC(=O)Nc2ccc(OC(F)(F)F)cc2)[C@H](C)/C=C/C(=O)NC\C=C\1 [SA0110195] | > 64 | > 64 | > 64 | 8 (≈ 10.7 µM) | 8 (≈ 10.7 µM) | > 64 | > 64 | > 64 | 8 (≈ 10.7 µM) | > 64 | > 64 | > 64 | > 64 | > 64 | 16 (≈ 21.4 µM) | 8 (≈ 10.7 µM) | 16 (≈ 21.4 µM) | 16 (≈ 21.4 µM) | > 64 | > 64 | MIC [1, 18]: > 64 µg/mL
8 | CC1=C\[C@@H](O)CC(=O)Cc2nc(co2)C(=O)N2CCC[C@@H]2C(=O)O[C@H]([C@@H](C)COC(=O)Nc2ccc3ccccc3n2)[C@H](C)/C=C/C(=O)NC\C=C\1 [SA0110117] | > 64 | > 64 | 8 (≈ 11.2 µM) | 2 (≈ 2.8 µM) | 4 (≈ 5.6 µM) | > 64 | > 64 | > 64 | 16 (≈ 22.4 µM) | 32 (≈ 44.8 µM) | > 64 | > 64 | > 64 | 4 (≈ 5.6 µM) | 16 (≈ 22.4 µM) | 16 (≈ 22.4 µM) | 16 (≈ 22.4 µM) | 32 (≈ 44.8 µM) | > 64 | > 64 | –
